Test results published in PubChem BioAssay (NCI).
Where “and” joins values, the source holds several entries; their conditions need not be identical. Identical values can stand only once.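 These data come from cells grown in 96-well plates and exposed to compound for 48 hours at five concentrations. GI50 is the concentration that inhibits growth by half. TGI: total growth inhibition.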

Tests used:
Assay in all cases: NCI tumour cell line growth inhibition, 48 h
HOP-62 NSCLC = test system: HOP-62 NSCLC
DU-145 prostate = test system: DU-145 prostate
MOLT-4 leukemia = test system: MOLT-4 leukemia
XF 498 CNS = test system: XF 498 CNS
RXF 393 renal = test system: RXF 393 renal
EKVX NSCLC = test system: EKVX NSCLC
SW-620 colon = test system: SW-620 colon
HL-60(TB) leukemia = test system: HL-60(TB) leukemia
NCI-H522 lung = test system: NCI-H522 lung
OVCAR-8 ovarian = test system: OVCAR-8 ovarian
DMS 114 small cell lung = test system: DMS 114 small cell lung
COLO 205 colon = test system: COLO 205 colon
SK-MEL-5 melanoma = test system: SK-MEL-5 melanoma
SK-OV-3 ovarian = test system: SK-OV-3 ovarian
PC-3 prostate = test system: PC-3 prostate
HCT-15 colon = test system: HCT-15 colon
SF-295 CNS = test system: SF-295 CNS

## Cc1c2cc[n+](C)cc2c(C)c2c1[nH]c1ccccc12
HOP-62 NSCLC
  TGI: 2.64 µM and 2.76 µM
DU-145 prostate
  TGI: 24.9 µM
MOLT-4 leukemia
  TGI: 56.6 µM and 30.2 µM
XF 498 CNS
  GI50: 0.856 µM
  TGI: 5.09 µM and 2.45 µM
RXF 393 renal
  TGI: 62 µM and 36.7 µM
EKVX NSCLC
  TGI: 11.1 µM and 14 µM
SW-620 colon
  TGI: 54.6 µM and 47.5 µM
HL-60(TB) leukemia
  TGI: 66.9 µM and 63.5 µM
NCI-H522 lung
  TGI: 3.6 µM and 3.45 µM
OVCAR-8 ovarian
  TGI: 27.4 µM and 18.1 µM
DMS 114 small cell lung
  TGI: 1.88 µM and 1.99 µM
COLO 205 colon
  TGI: 4.57 µM and 3.37 µM
SK-MEL-5 melanoma
  TGI: 5.92 µM and 4.85 µM
SK-OV-3 ovarian
  TGI: 64.7 µM and 64.2 µM
PC-3 prostate
  TGI: > 100 µM
HCT-15 colon
  GI50: 88 µM and 19.4 µM
  TGI: > 100 µM and 99 µM
SF-295 CNS
  TGI: 1.71 µM and 2.08 µM
